ChEMBL document CHEMBL1201862, “PubChem BioAssay data set” (2004)
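Dose response: 5 concentrations. Exposure: 48 h. Format: 96-well plates. Endpoint: linear interpolation; highest concentration if not reached. Here, GI50 denotes the concentration required for 50% inhibition of growth.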 Active and inactive are the calls of the source. No stated cut-off is given here; in the data, active = GI50 up to about 1.1 µM and inactive = higher.

Tests used:
Test in all cases: inhibition of tumour cell growth, NCI panel, 48 h
[1] = tested on: 786-0
[2] = tested on: A498
[3] = tested on: CCRF-CEM
[4] = tested on: COLO 205
[5] = tested on: EKVX
[6] = tested on: HCT-15
[7] = tested on: HOP-62
[8] = tested on: IGROV-1
[9] = tested on: MOLT-4
[10] = tested on: OVCAR-4
[11] = tested on: OVCAR-5
[12] = tested on: SF-295
[13] = tested on: SNB-19
[14] = tested on: SNB-75
[15] = tested on: SW-620
[16] = tested on: U-251
[17] = tested on: UACC-62
[18] = tested on: SK-MEL-2

SMILES | GI50 [1] | GI50 [2] | GI50 [3] | GI50 [4] | GI50 [5] | GI50 [6] [µM] | GI50 [7] | GI50 [8] | GI50 [9] | GI50 [10] | GI50 [11] | GI50 [12] | GI50 [13] | GI50 [14] | GI50 [15] | GI50 [16] | GI50 [17] | GI50 [18]
O=C(O)c1cc2c3ccccc3nc-2c[nH]1 | > 100 µM (inactive) | 10 µM (inactive) | > 100 µM (inactive) | > 100 µM (inactive) | > 100 µM (inactive) | > 100 | > 100 µM (inactive) | > 100 µM (inactive) | > 100 µM (inactive) | > 100 µM (inactive) | > 100 µM (inactive) | > 100 µM (inactive) | > 100 µM (inactive) | > 100 µM (inactive) | > 100 µM (inactive) | > 100 µM (inactive) | > 100 µM (inactive) | 
CCOc1ccc(Nc2nc(C)c(C(=O)/C=C/c3ccc(Cl)cc3Cl)s2)cc1 | 19.5 µM (inactive) | 22.8 µM (inactive) | 29.8 µM (inactive) | 17.8 µM (inactive) | 31.1 µM (inactive) | 22.2 | 31.3 µM (inactive) | 35.5 µM (inactive) | 23 µM (inactive) | 10.8 µM (inactive) | 40.8 µM (inactive) | 20 µM (inactive) | 31.4 µM (inactive) | 18.5 µM (inactive) | 20.6 µM (inactive) | 19.8 µM (inactive) | 24 µM (inactive) | 24 µM (inactive)
Cc1c(C)n(COCCO)c2ncnc(N)c12 | > 100 µM (inactive) | > 100 µM (inactive) | > 100 µM (inactive) | > 100 µM (inactive) | > 100 µM (inactive) | > 100 |  | > 100 µM (inactive) | > 100 µM (inactive) | > 100 µM (inactive) |  | > 100 µM (inactive) | > 100 µM (inactive) | > 100 µM (inactive) | > 100 µM (inactive) | > 100 µM (inactive) |  | > 100 µM (inactive)
O=C1C=CC(=O)c2c1ccc1c3ccccc3n(-c3ccccn3)c21 | 15.2 µM (inactive) |  | 2.5 µM (inactive) | 14.2 µM (inactive) | 13.8 µM (inactive) | 19.1 |  |  | 4.8 µM (inactive) | 15.5 µM (inactive) | > 100 µM (inactive) | > 100 µM (inactive) |  | > 100 µM (inactive) |  | > 100 µM (inactive) |  | 45.4 µM (inactive)
CCOc1ccc2c(c1)[n+]([O-])c(-c1ccc(Br)cc1)c(N)[n+]2[O-] | > 100 µM (inactive) | 45.3 µM (inactive) | 53.1 µM (inactive) | 24.2 µM (inactive) | 52.8 µM (inactive) | 47 | 67.6 µM (inactive) | 67 µM (inactive) | 40.9 µM (inactive) | > 100 µM (inactive) | > 100 µM (inactive) | > 100 µM (inactive) | 57.3 µM (inactive) | > 100 µM (inactive) | > 100 µM (inactive) | 47.3 µM (inactive) | 38.1 µM (inactive) | > 100 µM (inactive)
CN(C)c1ccc(/C=N\N2C(=O)c3ccccc3C2=O)cc1 | > 100 µM (inactive) | > 100 µM (inactive) | > 100 µM (inactive) |  | > 100 µM (inactive) | > 100 | > 100 µM (inactive) | > 100 µM (inactive) | > 100 µM (inactive) | > 100 µM (inactive) | > 100 µM (inactive) | > 100 µM (inactive) | > 100 µM (inactive) | 40.9 µM (inactive) | > 100 µM (inactive) |  | > 100 µM (inactive) | > 100 µM (inactive)
N#C/C(=C/c1ccsc1)C(=O)c1ccccc1 | > 100 µM (inactive) |  | > 100 µM (inactive) | > 100 µM (inactive) | > 100 µM (inactive) | > 100 | > 100 µM (inactive) |  | > 100 µM (inactive) | > 100 µM (inactive) | > 100 µM (inactive) | > 100 µM (inactive) | > 100 µM (inactive) | > 100 µM (inactive) | > 100 µM (inactive) | > 100 µM (inactive) | > 100 µM (inactive) | > 100 µM (inactive)
C[C@]12Cc3conc3C(O)=C1CC[C@@H]1C2CC[C@@]2(C)C1CC[C@]2(C)O (some centres not stated) | 22.7 µM (inactive) | 16.1 µM (inactive) | 8.97 µM (inactive) | 20.4 µM (inactive) | 21.5 µM (inactive) | 10.7 | 22.9 µM (inactive) | 19 µM (inactive) | 15.2 µM (inactive) | 17.2 µM (inactive) | 29.2 µM (inactive) | 19.1 µM (inactive) | 25.3 µM (inactive) | 10.2 µM (inactive) | 21.1 µM (inactive) | 19.7 µM (inactive) | 10.4 µM (inactive) | 14.3 µM (inactive)
COC(=O)CCC(=O)CC(=O)C(=O)Nc1ccc(F)cc1 | > 100 µM (inactive) | > 100 µM (inactive) | > 100 µM (inactive) | > 100 µM (inactive) | > 100 µM (inactive) | > 100 | > 100 µM (inactive) | > 100 µM (inactive) | > 100 µM (inactive) | > 100 µM (inactive) | > 100 µM (inactive) |  | > 100 µM (inactive) | > 100 µM (inactive) | > 100 µM (inactive) | > 100 µM (inactive) | > 100 µM (inactive) | > 100 µM (inactive)
COC(=O)C1=C(C(=O)OC)C2(C(=O)OC)OC1(OC)C(C1(C(=O)OC)C(C(=O)OC)=C1C(=O)OC)=C2C(=O)OC (configuration not stated) | > 100 µM (inactive) |  | > 100 µM (inactive) | > 100 µM (inactive) | > 100 µM (inactive) | > 100 | > 100 µM (inactive) | > 100 µM (inactive) | > 100 µM (inactive) |  | > 100 µM (inactive) | > 100 µM (inactive) | > 100 µM (inactive) | > 100 µM (inactive) | > 100 µM (inactive) | > 100 µM (inactive) | > 100 µM (inactive) | > 100 µM (inactive)
O=S1(=O)NN=C(NCc2ccc(Cl)cc2)c2ccccc21 | 54.5 µM (inactive) | > 100 µM (inactive) | 45.2 µM (inactive) | > 100 µM (inactive) | 46.9 µM (inactive) | 67 |  | > 100 µM (inactive) | 22.8 µM (inactive) | > 100 µM (inactive) | > 100 µM (inactive) | > 100 µM (inactive) | > 100 µM (inactive) |  | > 100 µM (inactive) | 50.4 µM (inactive) | 83.6 µM (inactive) | > 100 µM (inactive)
COC(=O)C1=Cc2cn(S(=O)(=O)c3ccc(C)cc3)c3cccc(c23)C(C=C(C)C)N1C(C)=O (configuration not stated) | > 100 µM (inactive) | 68.9 µM (inactive) | 7.87 µM (inactive) | 4.71 µM (inactive) | > 100 µM (inactive) |  | > 100 µM (inactive) | 48.8 µM (inactive) | 3.1 µM (inactive) | 8.67 µM (inactive) | > 100 µM (inactive) | 6.11 µM (inactive) | 49 µM (inactive) | 98.6 µM (inactive) | 32.7 µM (inactive) | 45.6 µM (inactive) | 47.4 µM (inactive) | 4.68 µM (inactive)
Nc1ccn(CCCC(c2ccccc2)P(=O)(O)O)c(=O)n1 (configuration not stated) | > 100 µM (inactive) | > 100 µM (inactive) | > 100 µM (inactive) | > 100 µM (inactive) |  | > 100 | > 100 µM (inactive) | > 100 µM (inactive) |  |  | > 100 µM (inactive) | > 100 µM (inactive) | > 100 µM (inactive) | > 100 µM (inactive) | > 100 µM (inactive) | > 100 µM (inactive) | > 100 µM (inactive) | > 100 µM (inactive)
CC(C)(C)OC(=O)NCCc1cccc2c1oc1c(CCC(=O)O)cccc12 | > 100 µM (inactive) | > 100 µM (inactive) | > 100 µM (inactive) | > 100 µM (inactive) |  | > 100 |  | > 100 µM (inactive) | > 100 µM (inactive) | > 100 µM (inactive) | > 100 µM (inactive) | > 100 µM (inactive) | > 100 µM (inactive) | 95.9 µM (inactive) | > 100 µM (inactive) | > 100 µM (inactive) | > 100 µM (inactive) | > 100 µM (inactive)
C=C1CC2CC[C@@]34C[C@@H]5O[C@@H]6C(O[C@H]7CC[C@H](CC(=O)OC8[C@@H](C)C9OC%10C[C@]%11(C[C@@H]%12O[C@@]%13(C[C@@H](C)[C@@H]%12O%11)C[C@H](C)[C@@H]%11OC%12CC(C(O)CO)OC%12C[C@@H]%11O%13)OC%10CC9O[C@H]8C[C@H]8O[C@@H](CC[C@@H]1O2)C[C@@H](C)C8=C)O[C@@H]7[C@@H]6O3)C5O4 (some centres not stated) | 0.00211 µM (active) | 0.00197 µM (active) | 0.000977 µM (active) | 0.000667 µM (active) | 0.00405 µM (active) | 0.000476 | 0.00141 µM (active) | 0.00248 µM (active) | 0.00135 µM (active) | 0.00471 µM (active) | 0.00904 µM (active) | 0.000453 µM (active) | 0.00211 µM (active) | 0.000434 µM (active) | 0.000485 µM (active) | 0.00103 µM (active) | 0.000494 µM (active) | 0.00125 µM (active)
Cc1[nH]c(O)nc1C(=O)c1ccc(-n2ccnc2)cc1 | > 100 µM (inactive) | > 100 µM (inactive) |  |  |  | > 100 | > 100 µM (inactive) | > 100 µM (inactive) | > 100 µM (inactive) | > 100 µM (inactive) | > 100 µM (inactive) | > 100 µM (inactive) | > 100 µM (inactive) | > 100 µM (inactive) | > 100 µM (inactive) | > 100 µM (inactive) | > 100 µM (inactive) | > 100 µM (inactive)
O=C(O)CN(c1ccc(F)cc1)S(=O)(=O)c1ccccc1 | > 100 µM (inactive) | > 100 µM (inactive) | > 100 µM (inactive) | > 100 µM (inactive) | > 100 µM (inactive) | > 100 |  | > 100 µM (inactive) | > 100 µM (inactive) | > 100 µM (inactive) | > 100 µM (inactive) | > 100 µM (inactive) | > 100 µM (inactive) | > 100 µM (inactive) | > 100 µM (inactive) | > 100 µM (inactive) | > 100 µM (inactive) | > 100 µM (inactive)
